Experiments:
Experiment in all cases: cells
[1] = system: HCT-116; type: functional, cell-based, Homo sapiens; conditions: Homo sapiens, HCT-116
Description: SANGER: Inhibition of human HCT-116 cell growth in a cell viability assay.

[2] = system: HCC70; type: functional, cell-based, Homo sapiens; conditions: Homo sapiens, HCC70;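 also: cell viability assay measuring how strongly the compound suppresses proliferation of HCC70 cells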
Description: SANGER: Inhibition of human HCC70 cell growth in a cell viability assay.

[3] = system: BT-20; type: functional, cell-based, Homo sapiens; conditions: Homo sapiens, BT-20;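 also: cell viability assay measuring suppression of growth in human BT-20 cells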
Description: SANGER: Inhibition of human BT-20 cell growth in a cell viability assay.

[4] = system: SIG-M5; type: functional, cell-based, Homo sapiens; conditions: Homo sapiens, SIG-M5;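 also: cell viability assay read-out, measuring how strongly growth of cultured human SIG-M5 cells is inhibited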
Description: SANGER: Inhibition of human SIG-M5 cell growth in a cell viability assay.

[5] = system: T84; type: functional, cell-based, Homo sapiens; conditions: Homo sapiens, T84;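 also: growth inhibition measured with a cell viability readout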
Description: SANGER: Inhibition of human T84 cell growth in a cell viability assay.

[6] = system: SW1573; type: functional, cell-based, Homo sapiens; conditions: Homo sapiens, SW1573;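 also: growth inhibition of SW1573 cells, read out with a cell viability assay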
Description: SANGER: Inhibition of human SW1573 cell growth in a cell viability assay.

[7] = system: U2OS; type: functional, cell-based, Homo sapiens, U-2-OS; conditions: Homo sapiens, U2OS;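 also: growth inhibition of human U-2-OS cells, determined with a cell viability assay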
Description: SANGER: Inhibition of human U-2-OS cell growth in a cell viability assay.

[8] = system: NCI-H2228; type: functional, cell-based, Homo sapiens; conditions: Homo sapiens, NCI-H2228;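 also: growth inhibition of human NCI-H2228 cells, read out by a cell viability assay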
Description: SANGER: Inhibition of human NCI-H2228 cell growth in a cell viability assay.

[9] = system: A2058; type: functional, cell-based, Homo sapiens; conditions: Homo sapiens, A2058;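 also: reduction of A2058 cell growth, read out with a viability assay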
Description: SANGER: Inhibition of human A2058 cell growth in a cell viability assay.

[10] = system: HEC-1; type: functional, cell-based, Homo sapiens; conditions: Homo sapiens, HEC-1;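 also: growth inhibition of the cell line, read out with a cell viability assay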
Description: SANGER: Inhibition of human HEC-1 cell growth in a cell viability assay.

[11] = system: OE33; type: functional, cell-based, Homo sapiens; conditions: Homo sapiens, OE33;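 also: growth inhibition of human OE33 cells, measured by a cell viability assay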
Description: SANGER: Inhibition of human OE33 cell growth in a cell viability assay.

[12] = system: COLO-792; type: functional, cell-based, Homo sapiens; conditions: Homo sapiens, COLO-792
Description: SANGER: Inhibition of human COLO-792 cell growth in a cell viability assay.

[13] = system: DG-75; type: functional, cell-based, Homo sapiens; conditions: Homo sapiens, DG-75;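 also: growth inhibition of DG-75 cells, read out with a cell viability assay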
Description: SANGER: Inhibition of human DG-75 cell growth in a cell viability assay.

[14] = system: NCI-H460; type: functional, cell-based, Homo sapiens; conditions: Homo sapiens, NCI-H460;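 also: cell viability assay scoring growth inhibition of human NCI-H460 cells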
Description: SANGER: Inhibition of human NCI-H460 cell growth in a cell viability assay.

[15] = system: EGI-1; type: functional, cell-based, Homo sapiens; conditions: Homo sapiens, EGI-1;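 also: cell viability readout used to gauge growth inhibition of EGI-1 cells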
Description: SANGER: Inhibition of human EGI-1 cell growth in a cell viability assay.

[16] = system: MHH-ES-1; type: functional, cell-based, Homo sapiens; conditions: Homo sapiens, MHH-ES-1;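 also: cell growth inhibition measured by a cell viability assay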
Description: SANGER: Inhibition of human MHH-ES-1 cell growth in a cell viability assay.

[17] = system: NCI-H1882; type: functional, cell-based, Homo sapiens; conditions: Homo sapiens, NCI-H1882;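 also: growth inhibition of the cell line, determined with a viability assay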
Description: SANGER: Inhibition of human NCI-H1882 cell growth in a cell viability assay.

[18] = system: NCI-H1693; type: functional, cell-based, Homo sapiens; conditions: Homo sapiens, NCI-H1693;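 also: growth inhibition of the human cell line, read out with a cell viability assay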
Description: SANGER: Inhibition of human NCI-H1693 cell growth in a cell viability assay.

[19] = system: CHL-1; type: functional, cell-based, Homo sapiens; conditions: Homo sapiens, CHL-1;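 also: cell growth inhibition, read out with a cell viability assay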
Description: SANGER: Inhibition of human CHL-1 cell growth in a cell viability assay.

[20] = system: AGS; type: functional, cell-based, Homo sapiens; conditions: Homo sapiens, AGS;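 also: growth inhibition of AGS cells, determined with a cell viability assay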
Description: SANGER: Inhibition of human AGS cell growth in a cell viability assay.

[21] = system: P31-FUJ; type: functional, cell-based, Homo sapiens; conditions: Homo sapiens, P31-FUJ;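 also: growth inhibition of P31-FUJ cells, read out with a viability assay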
Description: SANGER: Inhibition of human P31-FUJ cell growth in a cell viability assay.

[22] = system: NCI-H1755; type: functional, cell-based, Homo sapiens; conditions: Homo sapiens, NCI-H1755;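 also: cell viability readout used to measure growth inhibition of NCI-H1755 cells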
Description: SANGER: Inhibition of human NCI-H1755 cell growth in a cell viability assay.

[23] = system: PA-1; type: functional, cell-based, Homo sapiens; conditions: Homo sapiens, PA-1;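 also: IC50 for suppression of PA-1 cell proliferation, determined with a cell viability read-out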
Description: SANGER: Inhibition of human PA-1 cell growth in a cell viability assay.

[24] = system: MONO-MAC-6; type: functional, cell-based, Homo sapiens; conditions: Homo sapiens, MONO-MAC-6;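 also: cell viability assay measuring growth inhibition of human MONO-MAC-6 cells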
Description: SANGER: Inhibition of human MONO-MAC-6 cell growth in a cell viability assay.

[25] = system: HuCCT-1; type: functional, cell-based, Homo sapiens, HuCCT1; conditions: Homo sapiens, HuCCT-1;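 also: growth inhibition of HuCCT-1 cells, read out by a cell viability assay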
Description: SANGER: Inhibition of human HuCCT1 cell growth in a cell viability assay.

[26] = system: SW-620; type: functional, cell-based, Homo sapiens; conditions: Homo sapiens, SW-620;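 also: growth inhibition of human SW-620 cells, measured by a cell viability assay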
Description: SANGER: Inhibition of human SW620 cell growth in a cell viability assay.

[27] = system: MDA-MB-134-VI; type: functional, cell-based, Homo sapiens; conditions: Homo sapiens, MDA-MB-134-VI
Description: SANGER: Inhibition of human MDA-MB-134-VI cell growth in a cell viability assay.

[28] = system: YAPC; type: functional, cell-based, Homo sapiens; conditions: Homo sapiens, YAPC;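 also: growth inhibition of YAPC cells, measured with a cell viability assay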
Description: SANGER: Inhibition of human YAPC cell growth in a cell viability assay.

[29] = system: CAL-39; type: functional, cell-based, Homo sapiens; conditions: Homo sapiens, CAL-39;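 also: cell viability assay measuring growth inhibition of CAL-39 cells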
Description: SANGER: Inhibition of human CAL-39 cell growth in a cell viability assay.

[30] = system: NCI-H1694; type: functional, cell-based, Homo sapiens; conditions: Homo sapiens, NCI-H1694;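 also: cell viability assay measuring inhibition of growth in human NCI-H1694 cells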
Description: SANGER: Inhibition of human NCI-H1694 cell growth in a cell viability assay.

[31] = system: NB1; type: functional, cell-based, Homo sapiens; conditions: Homo sapiens, NB1;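 also: reduction of NB1 cell proliferation, read out with a viability assay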
Description: SANGER: Inhibition of human NB1 cell growth in a cell viability assay.

[32] = system: NCI-H2342; type: functional, cell-based, Homo sapiens; conditions: Homo sapiens, NCI-H2342;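 also: growth inhibition of the cancer cell line, determined with a cell viability assay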
Description: SANGER: Inhibition of human NCI-H2342 cell growth in a cell viability assay.

[33] = system: U-251; type: functional, cell-based, Homo sapiens; conditions: Homo sapiens, U-251;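 also: growth inhibition of human U-251 cells, read out through a cell viability assay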
Description: SANGER: Inhibition of human U251 cell growth in a cell viability assay.

[34] = system: UMC-11; type: functional, cell-based, Homo sapiens; conditions: Homo sapiens, UMC-11;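 also: growth inhibition of UMC-11 cells, read out with a cell viability assay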
Description: SANGER: Inhibition of human UMC-11 cell growth in a cell viability assay.

[35] = system: MEL-JUSO; type: functional, cell-based, Homo sapiens; conditions: Homo sapiens, MEL-JUSO;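 also: growth inhibition of human MEL-JUSO cells, read out with a cell viability assay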
Description: SANGER: Inhibition of human MEL-JUSO cell growth in a cell viability assay.

[36] = system: SK-N-AS; type: functional, cell-based, Homo sapiens; conditions: Homo sapiens, SK-N-AS;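 also: growth inhibition of human SK-N-AS cells, measured with a cell viability assay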
Description: SANGER: Inhibition of human SK-N-AS cell growth in a cell viability assay.

[37] = system: ECC4; type: functional, cell-based, Homo sapiens; conditions: Homo sapiens, ECC4;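 also: growth inhibition of ECC4 cells, read out with a cell viability assay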
Description: SANGER: Inhibition of human ECC4 cell growth in a cell viability assay.

[38] = system: JIYOYE; type: functional, cell-based, Homo sapiens; conditions: Homo sapiens, JIYOYE
Description: SANGER: Inhibition of human JiyoyeP-2003 cell growth in a cell viability assay.

[39] = system: Calu-3; type: functional, cell-based, Homo sapiens; conditions: Homo sapiens, Calu-3;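 also: growth inhibition of human Calu-3 cells, determined with a cell viability assay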
Description: SANGER: Inhibition of human Calu-3 cell growth in a cell viability assay.

[40] = system: CAL-72; type: functional, cell-based, Homo sapiens; conditions: Homo sapiens, CAL-72;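 also: cell viability assay measuring inhibition of proliferation in the CAL-72 cell line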
Description: SANGER: Inhibition of human CAL-72 cell growth in a cell viability assay.

[41] = system: RPMI-2650; type: functional, cell-based, Homo sapiens; conditions: Homo sapiens, RPMI-2650
Description: SANGER: Inhibition of human RPMI-2650 cell growth in a cell viability assay.

[42] = system: SW948; type: functional, cell-based, Homo sapiens; conditions: Homo sapiens, SW948;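 also: growth inhibition of SW948 cells, read out with a cell viability assay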
Description: SANGER: Inhibition of human SW948 cell growth in a cell viability assay.

[43] = system: NALM-6; type: functional, cell-based, Homo sapiens; conditions: Homo sapiens, NALM-6;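 also: growth inhibition of NALM-6 cells, read out with a cell viability assay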
Description: SANGER: Inhibition of human NALM-6 cell growth in a cell viability assay.

[44] = system: NCI-H716; type: functional, cell-based, Homo sapiens; conditions: Homo sapiens, NCI-H716;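 also: growth inhibition of human NCI-H716 cells, measured by a cell viability assay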
Description: SANGER: Inhibition of human NCI-H716 cell growth in a cell viability assay.

[45] = system: COR-L23; type: functional, cell-based, Homo sapiens; conditions: Homo sapiens, COR-L23;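 also: cell viability assay measuring how strongly compounds suppress growth of COR-L23 cells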
Description: SANGER: Inhibition of human COR-L23 cell growth in a cell viability assay.

Cc1cc([N+](=O)[O-])ccc1NS(=O)(=O)c1cc(Cl)ccc1Cl
IC50 [1]: 3.72 µM | IC50 [2]: 6.62 µM | IC50 [3]: 8.51 µM | IC50 [4]: 3.36 µM | IC50 [5]: 4.69 µM | IC50 [6]: 9.54 µM | IC50 [7]: > 32 µM | IC50 [8]: 17 µM | IC50 [9]: 2.03 µM | IC50 [10]: 8.24 µM | IC50 [11]: 9.49 µM | IC50 [12]: 2.01 µM | IC50 [13]: > 32 µM | IC50 [14]: 3.66 µM | IC50 [15]: 24.8 µM | IC50 [16]: 6.43 µM | IC50 [17]: > 32 µM | IC50 [18]: > 32 µM | IC50 [19]: 2.18 µM | IC50 [20]: 5.37 µM | IC50 [21]: 7.77 µM | IC50 [22]: 15.8 µM | IC50 [23]: 2.9 µM | IC50 [24]: 6.18 µM | IC50 [25]: 7.32 µM | IC50 [26]: 3.93 µM | IC50 [27]: > 32 µM | IC50 [28]: > 32 µM | IC50 [29]: 2.16 µM | IC50 [30]: 22.8 µM | IC50 [31]: 8.38 µM | IC50 [32]: 4.93 µM | IC50 [33]: 2.17 µM | IC50 [34]: 1.09 µM | IC50 [35]: 5.17 µM | IC50 [36]: 6.53 µM | IC50 [37]: > 32 µM | IC50 [38]: 6.6 µM | IC50 [39]: 2.87 µM | IC50 [40]: > 32 µM | IC50 [41]: 1.98 µM | IC50 [42]: 12.3 µM | IC50 [43]: 6.28 µM | IC50 [44]: > 32 µM | IC50 [45]: 2.63 µM

Oc1ccc2ccccc2c1SSc1c(O)ccc2ccccc12
IC50 [1]: > 32 µM | IC50 [2]: > 32 µM | IC50 [3]: > 32 µM | IC50 [4]: 2.1 µM | IC50 [5]: 12.2 µM | IC50 [6]: > 32 µM | IC50 [7]: > 32 µM | IC50 [8]: > 32 µM | IC50 [9]: > 32 µM | IC50 [10]: > 32 µM | IC50 [11]: > 32 µM | IC50 [12]: > 32 µM | IC50 [13]: > 32 µM | IC50 [14]: > 32 µM | IC50 [15]: > 32 µM | IC50 [16]: > 32 µM | IC50 [17]: > 32 µM | IC50 [18]: > 32 µM | IC50 [19]: 11.9 µM | IC50 [20]: > 32 µM | IC50 [21]: > 32 µM | IC50 [22]: > 32 µM | IC50 [23]: 27.1 µM | IC50 [24]: > 32 µM | IC50 [25]: 20.1 µM | IC50 [26]: > 32 µM | IC50 [27]: > 32 µM | IC50 [28]: > 32 µM | IC50 [29]: > 32 µM | IC50 [30]: > 32 µM | IC50 [31]: 21.9 µM | IC50 [32]: > 32 µM | IC50 [33]: > 32 µM | IC50 [34]: > 32 µM | IC50 [35]: > 32 µM | IC50 [36]: > 32 µM | IC50 [37]: > 32 µM | IC50 [38]: 7.26 µM | IC50 [39]: > 32 µM | IC50 [40]: 24.7 µM | IC50 [41]: > 32 µM | IC50 [42]: > 32 µM | IC50 [43]: 0.977 µM | IC50 [44]: > 32 µM | IC50 [45]: 11.8 µM

C=C(c1ccc(C(=O)O)cc1)c1cc2c(cc1C)C(C)(C)CCC2(C)C [BEXAROTENE]
IC50 [1]: > 8 µM | IC50 [2]: > 8 µM | IC50 [3]: > 8 µM | IC50 [4]: < 0.0312 µM | IC50 [5]: > 8 µM | IC50 [6]: > 8 µM | IC50 [7]: > 8 µM | IC50 [8]: > 8 µM | IC50 [9]: > 8 µM | IC50 [10]: > 8 µM | IC50 [11]: > 8 µM | IC50 [12]: > 8 µM | IC50 [13]: > 8 µM | IC50 [14]: > 8 µM | IC50 [15]: > 8 µM | IC50 [16]: > 8 µM | IC50 [17]: > 8 µM | IC50 [18]: > 8 µM | IC50 [19]: > 8 µM | IC50 [20]: > 8 µM | IC50 [21]: > 8 µM | IC50 [22]: > 8 µM | IC50 [23]: > 8 µM | IC50 [24]: > 8 µM | IC50 [25]: > 8 µM | IC50 [26]: > 8 µM | IC50 [27]: > 8 µM | IC50 [28]: > 8 µM | IC50 [29]: > 8 µM | IC50 [30]: > 8 µM | IC50 [31]: > 8 µM | IC50 [32]: > 8 µM | IC50 [33]: > 8 µM | IC50 [34]: > 8 µM | IC50 [35]: > 8 µM | IC50 [36]: > 8 µM | IC50 [37]: > 8 µM | IC50 [38]: > 8 µM | IC50 [39]: > 8 µM | IC50 [40]: > 8 µM | IC50 [41]: > 8 µM | IC50 [42]: > 8 µM | IC50 [43]: > 8 µM | IC50 [44]: > 8 µM | IC50 [45]: > 8 µM

— ChEMBL document CHEMBL1201861, “Genomics of Drug Sensitity in Cancer screening data, Wellcome Trust Sanger Institute”
